Laboratory results: patent publication US20140271734A1, “BILE ACID RECYCLING INHIBITORS FOR TREATMENT OF BARRETT'S ESOPHAGUS AND GASTROESOPHAGEAL REFLUX DISEASE” (LUMENA PHARMACEUTICALS, INC., priority 2013, published 2014)
Read-outs that look alike come from different tables or passages of the source. Marks after values point to notes of the source that are not given here.

Columns and labels:
[1] = Toxicokinetics of LUM001 free form, 13-week oral gavage toxicity study in rats; type: in vivo; conditions: for AUC(0-t) / Cmax / Tmax: rat, plasma, oral; for AUC(0-t): read-out: AUC(0-24 h)
Description: Charles River CD IGS rats were assigned to treatment groups (9sex/toxicokinetic group) and were administered daily doses of 0, 5, 30, 75, and 150 mg/kg (males) or 0, 5, 30, 150, and 500 mg/kg (females). LUM001 was administered by once daily oral gavage in distilled water and fresh dosing solutions were prepared weekly. All animals were dosed with 10 mL/kg/day based on the most recently determined body weights. On Day 1 and during Week 12, approximately 1 mL of venous blood was collected in heparinized tubes from the retro-orbital venous plexus. Animals were anesthetized with CO2-O2 and blood samples were collected at 1, 2, 3, 5, 8, and 24 hours post-dose. Survival permitting, the first 3 animals/sex dose group were bled at 1 and 5 hours post-dose, the second 3 animals/sex/dose group were bled at 2 and 8 hours post-dose, and the last 3 animals/sex/dose group were bled at 3 and 24 hours post-dose. Blood collection tubes were kept on ice during the collection period after which they were centrifuged and the plasma was harvested within approximately 60 minutes of blood collection. Plasma samples were stored at approximately −20° C. or lower until analyzed.
The concentration of LUM001 free form in plasma were determined using an LCMSMS method. The assay sensitivity was 4.75 ng/mL. Means and standard errors of the means (SEM) were calculated for plasma concentrations at each time point. Mean values are significant to three figures and SEM values are significant to the same decimal place as the corresponding mean. Concentration values less than the assay sensitivity (4.75 ng LUM001 free form/mL) were reported as zero. The observed peak plasma concentrations (Cmax) of LUM001 free form, time to reach peak plasma concentration (Tmax) and areas under the plasma concentration-time curve (AUC0-24) were calculated by the TOXAUC computer program (1). For calculation purposes the 0 hr plasma concentrations were set to zero on Day 1 and to the concentrations at 24 hr post dose on Day 78. The TK parameters were calculated from mean data for each group of rats. The bioavailability (% BA) of LUM001 after oral administration of LUM001 was calculated according to the equation below:
% BA=[AUC oral (0-8)/AUC IV(0-8)/Dose oral/Dose IV]×100

[2] = Pharmacokinetics of LUM002 following single administration to rats; type: in vivo, Sprague Dawley Rat; conditions: for F: PO 20 mg/kg free acid, topmost estimate assuming 1 ng/mL over 24 h and dose-linear exposure
Description: To each rat either a single oral (PO; 20 mg/kg free acid) or a single intravenous (IV; 2 mg/kg free acid) dose of [^14Cl]LUM002 was administered. For PO and IV administration, the test substance was prepared with the adequate amount of water to reach a solution with a concentration of approximately 4 mg/g (PO) and 1 mg/g (IV). Oral administration was a gavage using a stomach tube and IV administration was a bolus injection into the tail vein. Exact doses administered to animals were calculated according to syringe weights.
The doses of radioactivity actually administered were determined by using standards prior to and after treatment of the animals. Blood—Animals were anaesthetized (Isoflurane) for blood sampling (3 animals/time point) and then euthanized by […]. Blood samples (maximal volume from each animal approx. 8 mL) were withdrawn from the abdominal aorta into containers containing a small amount of lithium heparin. and samples were centrifuged for 2 minutes at 1540 g. Aliquots (100 μL) of blood were used for hematocrit determination. Animals for the control groups (male and/or female) were used as predose animals for sampling of untreated biological samples (blood and plasma or liver, myocardium, kidneys only from male control animals). Plasma—To obtain plasma, blood samples were centrifuged for 10 minutes and stored cooled before final division.
Bioanalytical analysis—50 μL of plasma samples were placed into an 1.5 mL reaction tube. 5 μL methanol was added to each sample. For protein precipitation, 100 μL of the internal standard working solution (100 ng/mL of benzyl-13C6-LUM002 in acetonitrile) and 50 μL acetonitrile were added. In case of double blank samples, pure acetonitrile was added. Tubes were sealed and mixed thoroughly for 10 seconds. The tubes were centrifuged for 5 minutes at ≧3000 g. 50 μL of the clear supernatant was transferred into an autoinjector vial and were diluted with 50 μL deionized water. Analysis of samples was performed by using LC-MSMS (injection volume 50-75 μL) with a lower limit of quantification in the assay of 1 ng/mL for LUM002.

[3] = both sexes, CD IGS, Day 1, 150 mg/kg, Comb
[4] = both sexes, Charles River CD IGS, Day 78, 30.0 mg/kg, Comb
[5] = both sexes, Charles River CD IGS, Day 78, 150 mg/kg, Comb
[6] = female, CD IGS, Day 1, 150 mg/kg, F
[7] = female, CD IGS, Day 1, 500 mg/kg, F
[8] = female, Charles River CD IGS, Day 78, 30.0 mg/kg, F
[9] = female, Charles River CD IGS, Day 78, 150 mg/kg, F
[10] = female, Charles River CD IGS, Day 78, 500 mg/kg, F
[11] = male, CD IGS, Day 1, 30.0 mg/kg, M
[12] = male, CD IGS, Day 1, 75.0 mg/kg, M
[13] = male, CD IGS, Day 1, 150 mg/kg, M
[14] = male, Charles River CD IGS, Day 78, 5.0 mg/kg, M
[15] = male, Charles River CD IGS, Day 78, 30.0 mg/kg, M
[16] = male, Charles River CD IGS, Day 78, 75.0 mg/kg, M
[17] = male, Charles River CD IGS, Day 78, 150 mg/kg, M
[18] = M, IV bolus injection 2 mg/kg free acid

CCCCC1(CCCC)CS(=O)(=O)c2ccc(N(C)C)cc2[C@@H](c2ccc(OCc3ccc(C[N+]45CCN(CC4)CC5)cc3)cc2)[C@H]1O [LUM001]
BA ([1]; Day 1, 5.0 mg/kg, F): <0.1%
BA ([1]; Day 1, 5.0 mg/kg, M): <0.1%
BA ([1]; Day 1, 30.0 mg/kg, F): <0.1%
BA ([1]; Day 1, 75.0 mg/kg, M): <0.1%
BA ([1]; Day 1, 150 mg/kg, Comb): <0.1%
BA ([1]; Day 1, 500 mg/kg, F): <0.1%
BA ([1]; Day 78, 5.0 mg/kg, F): <0.1%
BA ([1]; Day 78, 30.0 mg/kg, Comb): <0.1%
BA ([1]; Day 78, 75.0 mg/kg, M): <0.1%
BA ([1]; Day 78, 150 mg/kg, Comb): <0.1%
BA ([1]; Day 78, 500 mg/kg, F): <0.1%
AUC(0-t) ([1]; both sexes, CD IGS, 150 mg/kg, Day 1, 150 mg/kg, Comb): 101 ng·h/mL
Cmax [1, 3]: 37.3 ng/mL
Tmax [1, 3]: 2 h
AUC(0-t) ([1]; both sexes, Charles River CD IGS, 30 mg/kg, Day 78, 30.0 mg/kg, Comb): 11.7 ng·h/mL
AUC(0-t) ([1]; both sexes, Charles River CD IGS, 150 mg/kg, Day 78, 150 mg/kg, Comb): 132 ng·h/mL
Cmax [1, 4]: 4.35 ng/mL
Tmax [1, 4]: 3 h
Cmax [1, 5]: 24.1 ng/mL
Tmax [1, 5]: 1 h
AUC(0-t) ([1]; female, CD IGS, 150 mg/kg, Day 1, 150 mg/kg, F): 106 ng·h/mL
Cmax [1, 6]: 42.4 ng/mL
Tmax [1, 6]: 2 h
Cmax [1, 7]: 9.99 ng/mL
Tmax [1, 7]: 3 h
AUC(0-t) ([1]; female, Charles River CD IGS, 30 mg/kg, Day 78, 30.0 mg/kg, F): 12.4 ng·h/mL
AUC(0-t) ([1]; female, Charles River CD IGS, 150 mg/kg, Day 78, 150 mg/kg, F): 124 ng·h/mL
AUC(0-t) ([1]; female, Charles River CD IGS, 500 mg/kg, Day 1, 500 mg/kg, F): 90.8 ng·h/mL
AUC(0-t) ([1]; female, Charles River CD IGS, 500 mg/kg, Day 78, 500 mg/kg, F): 470 ng·h/mL
Cmax [1, 8]: 3.95 ng/mL
Tmax [1, 8]: 3 h
Cmax [1, 9]: 22.2 ng/mL
Tmax [1, 9]: 2 h
Cmax [1, 10]: 62.9 ng/mL
Tmax [1, 10]: 3 h
AUC(0-t) ([1]; male, CD IGS, 30 mg/kg, Day 1, 30.0 mg/kg, M): 15.1 ng·h/mL
AUC(0-t) ([1]; male, CD IGS, 75 mg/kg, Day 1, 75.0 mg/kg, M): 6.37 ng·h/mL
AUC(0-t) ([1]; male, CD IGS, 150 mg/kg, Day 1, 150 mg/kg, M): 96.3 ng·h/mL
Cmax [1, 11]: 8.59 ng/mL
Tmax [1, 11]: 2 h
Cmax [1, 12]: 2.55 ng/mL
Tmax [1, 12]: 5 h
Cmax [1, 13]: 32.1 ng/mL
Tmax [1, 13]: 3 h
AUC(0-t) ([1]; male, Charles River CD IGS, 5 mg/kg, Day 78, 5.0 mg/kg, M): 11.1 ng·h/mL
AUC(0-t) ([1]; male, Charles River CD IGS, 30 mg/kg, Day 78, 30.0 mg/kg, M): 11.4 ng·h/mL
AUC(0-t) ([1]; male, Charles River CD IGS, 75 mg/kg, Day 78, 75.0 mg/kg, M): 61.4 ng·h/mL
AUC(0-t) ([1]; male, Charles River CD IGS, 150 mg/kg, Day 78, 150 mg/kg, M): 141 ng·h/mL
Cmax [1, 14]: 5.8 ng/mL
Tmax [1, 14]: 2 h
Cmax [1, 15]: 4.75 ng/mL
Tmax [1, 15]: 3 h
Cmax [1, 16]: 5.71 ng/mL
Tmax [1, 16]: 8 h
Cmax [1, 17]: 28.3 ng/mL
Tmax [1, 17]: 1 h

CCCC[C@]1(CC)CS(=O)(=O)c2ccc(N(C)C)cc2[C@@H](c2cccc(NC(=O)N[C@@H]3O[C@H](COS(=O)(=O)[O-])[C@@H](O)[C@H](OCc4ccccc4)[C@H]3O)c2)[C@H]1O.CCO.O.[K+] [LUM002, potassium((2R,3R,4S,5R,6R)-4-benzyloxy-6-{3-[3-((3S,4R,5R)-3-butyl-7-dimethylamino-3-ethyl-4-hydroxy-1,1-dioxo-2,3,4,5-tetrahydro-1H-benzo[b]thiepin-5-yl)-phenyl]-ureido}-3,5-dihydroxy-tetrahydro-pyran-2-ylmethyl)sulphate ethanolate, hydrate]
F ([2]; F): <1.3^e %
Cmax [2, 18]: 1036 ng/mL
Vss [2, 18]: 3.890 L/kg
t1/2 [2, 18]: 10.7 h
Tmax ([2]; M, IV bolus injection 2 mg/kg free acid, extrapolated to t = 0): 0^c h
F ([2]; M): <1.3^e %
LUM002 dose systemically absorbed ([2]; rats, single PO 20 mg/kg vs IV 2 mg/kg free acid): Less than 2%
